# Patent publication US20250011272A1, “LONG-CHAIN COMPOUND THAT ACTS ON ACLY, PREPARATION METHOD THEREFOR AND USE THEREOF” (SHANGHAIINSTITUTE OF MATERIA MEDICA, CHINESE ACADEMY OF …, priority 2021, published 2025)
# Like-named read-outs stand apart in the source and are kept apart here.
# Assays:
# [1] = target: Human ACLY (Homo sapiens (Human), UniProt P53396); test: ACLY enzyme activity test (ADP-Glo luminescence); type: biochemical; details: 37° C., 30 minutes
# Description: • Instrument: Envision (PerkinElmer, USA) • Materials: Acl—human ACLY/acly/ATP citrate lyase protein (His tag) was purchased from Sino Biological; kinase assay kit ADP-GLO (promega #V9102).
# Experimental principle: In this experiment, the ATP-dependent citrate lyase ACL catalyzes the conversion of citrate to acetyl coenzyme A, which in turn produces malonyl coenzyme A, a precursor molecule for fatty acid synthesis, and this reaction is accompanied by ATP depletion, so the change in ATP can be detected using the ADP-Glo Kinase Assay (#V9102) to indirectly reflect the inhibitory effect of the compound on the enzymatic activity of ACL. This kinase detection kit can quantitatively determine the amount of ADP catalyzed by ACLY enzyme activity. (First, the compound, the enzyme and the substrate are incubated at 37 degrees for half an hour, ADP-Glo& #V9102; reagent is added and incubated for half an hour to terminate the reaction and consume the remaining ATP; then the kinase detection reagent is added (which converts the ADP to ATP while also detecting the newly synthesized ATP using the coupled […] reaction) and incubated for half an hour. The value is read by using Envision.
# Experimental method: ADP Glo luminescence method was used for determination. It reflects the activity of ACLY enzyme by quantitatively detecting the amount of ADP, and the enzymatic reaction catalyzed by ACLY is proportional to the amount of ADP detected by the luminescent signal. Firstly, the compound is diluted with 10% DMSO, and then […] of compound dilution is added to a 5 μl reaction system, so that the final reaction system has a DMSO content of 2%. The enzymatic reaction catalyzed by ACLY was carried out at 37° C. for 30 minutes. 5 μl reaction mixture contained the following components: 40 mM Tris, pH 8.0, 10 mM MgCl2, 5 mM DTT, ATP, CoA, sodium citrate, and ACLY. After the enzymatic reaction was complete, 2.5 μl of ADP Glo reagent was added to each reaction system and incubated at room temperature for 1 hour. Afterwards, 5 μl of kinase detection reagent was added and incubated at room temperature for 30 minutes. The luminous signal was detected using Envision (PerkinElmer, USA).
# Data processing: For compound, the activity dose dependent relationship was tested. IC50 value was obtained by non-linear fitting of sample concentration based on sample activity. The software used for calculation was Graphpad Prism 7, and the model used for fitting was sigmoid dose response (variable slope). For most inhibitor screening models, the bottom and top of the fitting curve were set to 0 and 100. In general, each sample is set with multiple wells (n≥2) during testing, which are represented in the results as Standard Deviation (SD) or Standard Error (SE).
# [2] = system: NCI-H358 cells; test: MTS cell proliferation assay, H358; type: cell-based, human; details: 1% FBS, read-out: IC50, inhibition of proliferation, H358
# Description: (§1) Experimental materials: NCI-H358 cells (H358, human non-small cell lung cancer cells) were purchased from the cell bank/stem cell bank of the Chinese Academy of Sciences; RPMI-1640 culture medium (GIBCO, product number 3180002), and human tumor cell non-small cell lung cancer cell A549 were gifted by the research group of researcher Li Jia from SHANGHAI INSTITUTE OF MATERIA MEDICA, CHINESE ACADEMY OF SCIENCES. CellTier 96® The Aquarius One Solution Cell Promotion Assay (MTS) was purchased from Promega #G3581.
# (§2) Experimental principle: CellTier 96 ® AQueous One Solution Cell Proliferation Assay (MTS) colorimetric method was used to detect cell proliferation. This analysis method is based on the tetrazole compound (3-(4,5-dimethylthiazol-2-yl)-5-(3-carboxymethoxyphenyl)-2-(4-sulfophenyl)-2H-tetrazolium, internal salt; MTS). The conversion of yellow MTS to blue purple water-soluble formazan is catalyzed by dehydrogenase, which exists in living cells with metabolic activity; Dead cells cannot complete the transformation from MTS to formamide. The amount of formazan determined by absorbance at 490 nm is directly proportional to the number of live cells in culture.
# (§3) Sample processing: Dissolve the sample in DMSO and store it at low temperature.
# (§4) Cell survival rate was detected by using MTS method, that is, adherent cells growing in logarithmic phase were digested with 0.025% trypsin, and counted; 80 μl cells were inoculated into a 96 well plate at a density of 3000 cells/well for A549 and 5000 cells/well for H358 (all cultured under 1% FBS conditions), and grown overnight in a 5% CO2 and 37° C. incubator. Each compound was diluted with a three-fold concentration gradient, eight concentrations were tested, and three wells were set for each concentration. 20 μl of the diluted compounds was added to the corresponding cell wells. Adherent cells A549 and H358 were cultured in a 5% CO2 and 37° C. incubator for 72 hours; 20 μl of MTS was added separately and incubated for 2 hours in a 5% CO2 and 37° C. incubator. Molecular Device VersaMax was used to test the light absorption value at 490 nm (L1), with a reference wavelength of 690 nm (L2). The (L1−L2) values were plotted against different concentrations of inhibitors and IC50 was obtained by fitting the formula.
# (§5) The experimental results were fitted to the IC50 using Graphpad Prism 7. The model used for fitting was log(inhibitor) vs Response—variable slop, and the results of each assay were equipped with triple replicate wells to ensure the accuracy of the experiment. The results were expressed as Standard Deviation (SD) or Standard Error (SE).
# [3] = system: pancreatic cancer cell line ASPC-1; test: MTS cell proliferation assay, ASPC-1; type: cell-based; details: ASPC-1, MTS, read-out: IC50, inhibition of proliferation, ASPC-1
# Description: as §2, §3, §4, §5
# (§6) Similarly, the antiproliferative assays of the compounds on pancreatic cancer cell line ASPC-1, human pancreatic cancer cell MIA-PACA and breast cancer cell MCF-7 were performed as above.
# [4] = system: human pancreatic cancer cell MIA-PACA; test: MTS cell proliferation assay, MIA-PACA; type: cell-based
# Description: as §2, §3, §4, §5, §6
# [5] = system: breast cancer cell MCF-7; test: MTS cell proliferation assay, MCF-7; type: cell-based; details: MCF-7, MTS, read-out: IC50, inhibition of proliferation, MCF-7
# Description: as §2, §3, §4, §5, §6
# [6] = system: A549 cells; test: MTS cell proliferation assay, A549; type: cell-based; details: Homo sapiens, A549, 72 hours, 1% FBS, read-out: IC50, inhibition of proliferation, A549
# Description: as §1
# Experimental principle: CellTier 96 ® AQueous One Solution Cell Proliferation Assay (MTS) colorimetric method was used to detect cell proliferation. […] The amount of formazan determined by absorbance at 490 nm is directly proportional to the number of live cells in culture. […]
# Cell survival rate was detected by using MTS method, that is, adherent cells growing in logarithmic phase were digested with 0.025% trypsin, and counted; 80 μl cells were inoculated into a 96 well plate at a density of 3000 cells/well for A549 and 5000 cells/well for H358 (all cultured under 1% FBS conditions), and grown overnight in a 5% CO2 and 37° C. incubator. […]
# The experimental results were fitted to the IC50 using Graphpad Prism 7. […] The results were expressed as Standard Deviation (SD) or Standard Error (SE).
# [7] = Homo sapiens, NCI-H358, H358, 72 hours
# [8] = Homo sapiens, MIA PaCa-2, read-out: IC50, inhibition of proliferation, MIA-PACA
# Sequence of Human ACLY (P53396 whole entry): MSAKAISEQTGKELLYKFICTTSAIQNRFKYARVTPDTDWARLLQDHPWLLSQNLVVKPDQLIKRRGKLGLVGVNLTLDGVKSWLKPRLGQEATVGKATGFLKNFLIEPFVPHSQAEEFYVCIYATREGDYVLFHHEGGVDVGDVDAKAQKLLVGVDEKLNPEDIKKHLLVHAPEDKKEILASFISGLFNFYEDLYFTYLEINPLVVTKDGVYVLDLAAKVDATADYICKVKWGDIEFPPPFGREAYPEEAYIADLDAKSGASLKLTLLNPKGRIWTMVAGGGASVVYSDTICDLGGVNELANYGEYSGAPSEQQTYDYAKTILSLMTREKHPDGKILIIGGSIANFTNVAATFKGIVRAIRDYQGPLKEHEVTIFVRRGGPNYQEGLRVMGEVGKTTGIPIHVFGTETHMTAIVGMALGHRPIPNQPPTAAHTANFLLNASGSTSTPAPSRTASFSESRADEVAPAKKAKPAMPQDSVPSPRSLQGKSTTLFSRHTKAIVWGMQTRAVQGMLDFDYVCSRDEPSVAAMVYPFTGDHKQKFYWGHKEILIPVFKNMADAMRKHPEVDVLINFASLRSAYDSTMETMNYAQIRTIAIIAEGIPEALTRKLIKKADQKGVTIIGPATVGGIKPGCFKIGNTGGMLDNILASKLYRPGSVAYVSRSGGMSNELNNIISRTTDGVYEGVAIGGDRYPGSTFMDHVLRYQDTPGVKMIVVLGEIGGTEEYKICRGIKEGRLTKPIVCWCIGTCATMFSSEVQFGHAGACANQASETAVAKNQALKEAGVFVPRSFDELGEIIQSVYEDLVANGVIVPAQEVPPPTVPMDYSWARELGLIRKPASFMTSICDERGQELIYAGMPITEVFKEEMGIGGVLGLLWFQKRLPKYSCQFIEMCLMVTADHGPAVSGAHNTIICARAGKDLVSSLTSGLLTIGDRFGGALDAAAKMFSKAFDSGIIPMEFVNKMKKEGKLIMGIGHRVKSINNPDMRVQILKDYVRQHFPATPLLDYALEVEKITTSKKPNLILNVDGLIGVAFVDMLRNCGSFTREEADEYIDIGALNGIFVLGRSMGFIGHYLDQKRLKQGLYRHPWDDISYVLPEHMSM
Compound,IC50 [1],also measured
CC(CCCC/C=C\CCCCCC(C)(C(=O)O)c1ccccc1)(C(=O)O)c1ccccc1 (centres unmarked) [Compound M9],11.2 ± 1.61 µM,–
COc1ccc(CCOC(=O)C2(CCCCCC/C=C\CCCCCCC3(C(=O)O)C=CCC3)C=CCC2)cc1 (centres unmarked) [Compound M32],4.6 ± 1.3 µM,–
CC(CCCC/C=C/CCCCCC(C)(C(=O)O)c1ccccc1)(C(=O)O)c1ccccc1 (centres unmarked) [Compound M15],52.2 ± 0.27 µM,–
O=C(O)C1(CCCCCC/C=C\CCCCCCC2(C(=O)O)CC=CC2)CC=CC1 [Compound M2],2.9 ± 0.95 µM,–
O=C(O)C1(CCCCCC/C=C\CCCCCCCC2(C(=O)O)C=CCC2)C=CCC1 (centres unmarked) [Compound M13],2.7 ± 0.8 µM,–
O=C(O)C1(CCCCCC/C=C\CCCCCCCC2(C(=O)O)CC=CC2)CC=CC1 [Compound M3],1 ± 0.13 µM,–
CC[C@H](C)n1cc(C)c2c(C(=O)NCc3c(C)cc(C)[nH]c3=O)cc(-c3ccc(N4CCN(C(=O)CCCSC(=O)C(C)(C)CCCCC/C=C\CCCCCC(C)(C)C(=O)O)CC4)nc3)cc21 [Compound M33],3.3 ± 0.45 µM,–
O=C(O)C1(CCCCCC/C=C\CCCCCCC2(C(=O)OCCc3ccccc3F)C=CCC2)C=CCC1 (centres unmarked) [Compound M23],3.3 ± 0.72 µM,–
O=C(O)C1(CCCCC/C=C\CCCCCCC2(C(=O)O)C=CCC2)C=CCC1 (centres unmarked) [Compound M14],7 ± 0.16 µM,–
O=C(O)C1(CCCCCC/C=C\CCCCCCC2(C(=O)O)CC=CCC2)CC=CCC1 (centres unmarked) [Compound M6],5.3 ± 0.98 µM,–
O=C(O)C1(CCCCCCC=CCCCCCCC2(C(=O)OCCc3ccc(Cl)cc3Cl)C=CCC2)C=CCC1 (centres unmarked) [Compound M19],3.1 ± 1.3 µM,"IC50 ([2]; H358, 72 hours): 3.5 ± 0.4 µM; IC50 [3]: 2.7 ± 1 µM; IC50 ([4]; read-out: IC50, inhibition of proliferation, MIA-PACA): 1.9 ± 0.5 µM; IC50 [5]: 3.9 ± 0.5 µM"
O=C(O)C1(CCCCCC/C=C\CCCCCCC2(C(=O)OCCc3ccccc3Cl)C=CCC2)C=CCC1 (centres unmarked) [Compound M31],8.5 ± 3.2 µM,–
CCOC(=O)C1(CCCCCC/C=C\CCCCCCC2(C(=O)O)C=CCC2)C=CCC1 (centres unmarked) [Compound M20],3.5 ± 1.7 µM,–
O=C(O)C1(CCCCCC/C=C\CCCCCCC2(C(=O)OCCc3ccccc3)C=CCC2)C=CCC1 (centres unmarked) [Compound M27],7.7 ± 0.39 µM,–
COC(=O)C1(CCCCCC/C=C\CCCCCCC2(C(=O)O)C=CCC2)C=CCC1 (centres unmarked) [Compound M21],3.8 ± 0.83 µM,–
CC(CCCCCC/C=C\CCCCCCCC(C)(C(=O)O)c1ccccc1)(C(=O)O)c1ccccc1 (centres unmarked) [Compound M11],1.9 ± 0.31 µM,–

Compound,IC50 [1],also measured
CC(C)(CCCCCCC=C(CCCCCCC(C)(C)C(=O)O)c1ccc(C(=O)N2CCN(c3ccccn3)CC2)cc1)C(=O)O [Compound M36],4.57 ± 0.41 µM,–
O=C(O)C1(CCCCCC/C=C\CCCCCCCC2(C(=O)O)CC=CCC2)CC=CCC1 (centres unmarked) [Compound M12],3.9 ± 0.2 µM,–
"COC(=O)c1cc(Cl)c(O)c(S(=O)(=O)Nc2cc(-c3ccccc3)c(F)cc2F)c1 [NDI-091143, reference compound]",0.0021 ± 0.0004 µM,"IC50 [2, 7]: 50.2 ± 27.7 µM; IC50 ([3]; Homo sapiens, ASPC1): 83.3 ± 34.7 µM; IC50 [4, 8]: 40.9 ± 14.3 µM; IC50 ([5]; Homo sapiens, MCF7): 84.8 ± 45.3 µM"
O=C(O)C1(CCCCCC/C=C\CCCCCCC2(C(=O)OCCc3ccc4ccccc4c3)C=CCC2)C=CCC1 (centres unmarked) [Compound M29],5.8 ± 1.8 µM,"IC50 [2, 7]: 9 ± 1.9 µM; IC50 ([3]; Homo sapiens, ASPC1): 28 ± 10.1 µM; IC50 [4, 8]: 12.8 ± 1.6 µM; IC50 ([5]; Homo sapiens, MCF7): 6.5 ± 0.4 µM"
O=C(O)C1(CCCCCC/C=C\CCCCCCC2(C(=O)O)C=CCC2)C=CCC1 (centres unmarked) [Compound M5],1.5 ± 0.45 µM,"IC50 [2, 7]: 23.6 ± 1.9 µM; IC50 ([3]; Homo sapiens, ASPC1): 27.3 ± 0.8 µM; IC50 [6]: 12.5 ± 1.2 µM; IC50 [4, 8]: 13.5 ± 18 µM; IC50 ([5]; Homo sapiens, MCF7): 31.8 ± 1.7 µM"
C=CC(C)(CCCCCC/C=C\CCCCCCCC(C)(C=C)C(=O)O)C(=O)O (centres unmarked) [Compound M10],1.9 ± 0.2 µM,–
O=C(O)C1(CCCCCC/C=C\CCCCCCC2(C(=O)OCCCc3ccc(Cl)cc3Cl)C=CCC2)C=CCC1 (centres unmarked) [Compound M28],17 ± 2.5 µM,–
CC(C)(CCCCCC/C=C(/CCCCCCC(C)(C)C(=O)O)c1ccc(C(=O)N2CCN(c3ccccn3)CC2)cc1)C(=O)O [Compound M37],5.21 ± 0.27 µM,–
O=C(O)C1(CCCCCCC(=C(CCCCCCC2(C(=O)O)C=CCC2)c2ccccc2)c2ccccc2)C=CCC1 (centres unmarked) [Compound M35],0.9 ± 0.1 µM,–
Cc1ncsc1-c1ccc([C@H](C)NC(=O)[C@@H]2C[C@@H](O)CN2C(=O)[C@@H](NC(=O)C(C)(C)CCCCCC/C=C\CCCCCCC(C)(C)C(=O)O)C(C)(C)C)cc1 [Compound M34],10.2 ± 0.3 µM,–
O=C(O)C1(CCCCCC/C=C\CCCCCCC2(C(=O)O)CCCC2)CCCC1 [Compound M4],22.6 ± 2.7 µM,–
O=C(O)C1(CCCCCC/C=C\CCCCCCC2(C(=O)OCCc3ccc(F)cc3)C=CCC2)C=CCC1 (centres unmarked) [Compound M25],4 ± 0.86 µM,"IC50 [2, 7]: 5.6 ± 0.5 µM; IC50 ([3]; Homo sapiens, ASPC1): 29.2 ± 11.4 µM; IC50 [4, 8]: 11.9 ± 2.7 µM; IC50 ([5]; Homo sapiens, MCF7): 5.7 ± 1.5 µM"
C=CC(C)(CCCCCC/C=C\CCCCCCC(C)(C=C)C(=O)O)C(=O)O (centres unmarked) [Compound M7],4.1 ± 1.7 µM,–
O=C(O)C1(CCCCCC/C=C\CCCCCCC2(C(=O)OCCc3ccc(Cl)cc3)C=CCC2)C=CCC1 (centres unmarked) [Compound M30],19.9 ± 7.8 µM,–
CC(CCCCCCC=CCCCCCCC(C)(C(=O)O)c1ccccc1)(C(=O)O)c1ccccc1 (centres unmarked) [Compound M1],1.7 ± 0.3 µM,–
O=C(O)C1(CCCCCC/C=C\CCCCCCC2(C(=O)OCc3ccc(Cl)cc3Cl)C=CCC2)C=CCC1 (centres unmarked) [Compound M24],5.5 ± 1.9 µM,–
